Laboratory results as given in patent US4684664A, “Derivatives of β-(4-isocyano-1,2,3,4-diepoxycyclopentyl) acrylic acid” (Kureha Kagaku Kogyo Kabushiki Kaisha, priority 1984, dated 1987).
In brackets after ≈: the same amount, converted by molar mass.

Assays:
Format in all cases: cell-based
[1] = test system: Staphylococcus aureus FDA 209PJc-1; experiment: Antibacterial activity, agar-dilution MIC, organism No. 1; conditions: Staphylococcus aureus, FDA209PJC1, read-out: Minimum Inhibitory Concentration
Procedure, shortened: (§1)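 Endpoint: MIC in μg/ml of culture medium. Method: agar dilution. Medium: bouillon agar.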

[2] = test system: Staphylococcus aureus Terajima; experiment: Antibacterial activity, agar-dilution MIC, organism No. 2; conditions: Staphylococcus aureus, read-out: Minimum Inhibitory Concentration
Procedure, shortened: as §1

[3] = test system: Staphylococcus aureus MS 353; experiment: Antibacterial activity, agar-dilution MIC, organism No. 3; conditions: Staphylococcus aureus, MS353, read-out: Minimum Inhibitory Concentration
Procedure, shortened: as §1

[4] = test system: Streptococcus pyogenes Cook; experiment: Antibacterial activity, agar-dilution MIC, organism No. 4; conditions: Streptococcus pyogenes, read-out: Minimum Inhibitory Concentration
Procedure, shortened: as §1

[5] = test system: Escherichia coli NIHJ-JC-2; experiment: Antibacterial activity, agar-dilution MIC, organism No. 5; conditions: Escherichia coli, NIHJJC2, read-out: Minimum Inhibitory Concentration
Procedure, shortened: as §1

[6] = test system: Escherichia coli K12 C600 IAM 1264; experiment: Antibacterial activity, agar-dilution MIC, organism No. 6; conditions: Escherichia coli, IAM1264, read-out: Minimum Inhibitory Concentration
Procedure, shortened: as §1

[7] = test system: Klebsiella pneumoniae PCI-602; experiment: Antibacterial activity, agar-dilution MIC, organism No. 7; conditions: Klebsiella pneumoniae, PCI602, read-out: Minimum Inhibitory Concentration
Procedure, shortened: as §1

[8] = test system: Salmonella typhimurium IID 971; experiment: Antibacterial activity, agar-dilution MIC, organism No. 8; conditions: Salmonella enterica, read-out: Minimum Inhibitory Concentration
Procedure, shortened: as §1

Salmonella typhi 901 = experiment: Antibacterial activity, agar-dilution MIC, organism No. 9; conditions: Salmonella enterica, TYPHI, read-out: Minimum Inhibitory Concentration
Procedure, shortened: as §1

[9] = test system: Salmonella paratyphi-A 1015; experiment: Antibacterial activity, agar-dilution MIC, organism No. 10; conditions: Salmonella enterica, PARATYPHI, read-out: Minimum Inhibitory Concentration
Procedure, shortened: as §1

[10] = test system: Salmonella shottmuelleri 8006; experiment: Antibacterial activity, agar-dilution MIC, organism No. 11; conditions: Salmonella, 8006, read-out: Minimum Inhibitory Concentration
Procedure, shortened: as §1

[11] = test system: Salmonella enteritidis G 14; experiment: Antibacterial activity, agar-dilution MIC, organism No. 12; conditions: Salmonella enterica, ENTERITIDIS, read-out: Minimum Inhibitory Concentration
Procedure, shortened: as §1

[12] = test system: Serratia marcescens IAM 1184; experiment: Antibacterial activity, agar-dilution MIC, organism No. 13; conditions: Serratia marcescens, IAM1184, read-out: Minimum Inhibitory Concentration
From the text: Agar-dilution method was used for determination of the antibacterial activity and antifungal activity while using bouillon-agar culture medium, and the minimum inhibitory concentration of the specimen was expressed by μg/ml of the culture medium.

[13] = test system: Bacillus subtilis ATCC 6633; experiment: Antibacterial activity, agar-dilution MIC, organism No. 14; conditions: Bacillus subtilis, ATCC6633, read-out: Minimum Inhibitory Concentration
Procedure, shortened: as §1

[14] = test system: Pseudomonas aeruginosa IFO 3445; experiment: Antibacterial activity, agar-dilution MIC, organism No. 15; conditions: Pseudomonas aeruginosa, IFO3445, read-out: Minimum Inhibitory Concentration
Procedure, shortened: as §1

[15] = test system: Pseudomonas aeruginosa NCTC 10490; experiment: Antibacterial activity, agar-dilution MIC, organism No. 16; conditions: Pseudomonas aeruginosa, NCTC10490, read-out: Minimum Inhibitory Concentration
Procedure, shortened: as §1

[16] = test system: Pseudomonas aeruginosa PAO 1; experiment: Antibacterial activity, agar-dilution MIC, organism No. 17; conditions: Pseudomonas aeruginosa, PAO1, read-out: Minimum Inhibitory Concentration
Procedure, shortened: as §1

[17] = test system: Proteus morganii IFO 3848; experiment: Antibacterial activity, agar-dilution MIC, organism No. 18; conditions: Morganella morganii, IFO3848, read-out: Minimum Inhibitory Concentration
Procedure, shortened: as §1

[18] = test system: Proteus mirabilis IFO 3849; experiment: Antibacterial activity, agar-dilution MIC, organism No. 19; conditions: Proteus mirabilis, IFO3849, read-out: Minimum Inhibitory Concentration
Procedure, shortened: as §1

Proteus vulgaris OX-19 = experiment: Antibacterial activity, agar-dilution MIC, organism No. 20; conditions: Proteus vulgaris, OX19, read-out: Minimum Inhibitory Concentration
Procedure, shortened: as §1

Proteus vulgaris HX-19 = experiment: Antibacterial activity, agar-dilution MIC, organism No. 21; conditions: Proteus vulgaris, HX19, read-out: Minimum Inhibitory Concentration
Procedure, shortened: as §1

[19] = test system: Proteus rettgeri IFO 3850; experiment: Antibacterial activity, agar-dilution MIC, organism No. 22; conditions: Providencia rettgeri, IFO3850, read-out: Minimum Inhibitory Concentration
Procedure, shortened: as §1

[20] = test system: Enterobacter aerogenes ATCC 13048; experiment: Antibacterial activity, agar-dilution MIC, organism No. 23; conditions: Klebsiella aerogenes, ATCC13048, read-out: Minimum Inhibitory Concentration
Procedure, shortened: as §1

Enterobacter cloacae 963 = experiment: Antibacterial activity, agar-dilution MIC, organism No. 24; conditions: Enterobacter cloacae, 963, read-out: Minimum Inhibitory Concentration
Procedure, shortened: as §1

[21] = test system: Micrococcus luteus ATCC 9341; experiment: Antibacterial activity, agar-dilution MIC, organism No. 25; conditions: Micrococcus luteus, ATCC9341, read-out: Minimum Inhibitory Concentration
Procedure, shortened: as §1

[22] = test system: Streptococcus pyogenes IFO 3340; experiment: Antibacterial activity, agar-dilution MIC, organism No. 26; conditions: Streptococcus pyogenes, IFO3340, read-out: Minimum Inhibitory Concentration
Procedure, shortened: as §1

[23] = test system: Streptococcus faecium IFO 3826; experiment: Antibacterial activity, agar-dilution MIC, organism No. 27; conditions: Enterococcus faecium, IFO3826, read-out: Minimum Inhibitory Concentration
Procedure, shortened: as §1

[24] = test system: Candida albicans IAM 4905; experiment: Antifungal activity, agar-dilution MIC, organism No. 29; conditions: Candida albicans, IAM4905, read-out: Minimum Inhibitory Concentration
Procedure, shortened: as §1

[25] = test system: Aspergillus niger IFO 6342; experiment: Antifungal activity, agar-dilution MIC, organism No. 30; conditions: Aspergillus niger, IFO6342, read-out: Minimum Inhibitory Concentration
Procedure, shortened: as §1

Row | SMILES | MIC [1] [µg/mL] | MIC [2] [µg/mL] | MIC [3] [µg/mL] | MIC [4] [µg/mL] | MIC [5] [µg/mL] | MIC [6] [µg/mL] | MIC [7] [µg/mL] | MIC [8] [µg/mL] | MIC (Salmonella typhi 901) [µg/mL] | MIC [9] [µg/mL] | MIC [10] [µg/mL] | MIC [11] [µg/mL] | MIC [12] [µg/mL] | MIC [13] [µg/mL] | MIC [14] [µg/mL] | MIC [15] [µg/mL] | MIC [16] [µg/mL] | MIC [17] [µg/mL] | MIC [18] [µg/mL] | MIC (Proteus vulgaris OX-19) [µg/mL] | also measured
1 | [C-]#[N+]C12CC3(/C=C/C(=O)Nc4ccc(OC)cc4)OC3C1O2 (stereo not drawn) [compound 53] | < 0.05 | < 0.05 | < 0.05 | 6.25 (≈ 21 µM) | 12.5 (≈ 41.9 µM) | 3.13 (≈ 10.5 µM) | < 0.05 | 1.56 (≈ 5.23 µM) | 0.39 (≈ 1.31 µM) | < 0.05 | < 0.05 | 0.39 (≈ 1.31 µM) | 25 (≈ 83.8 µM) | 6.25 (≈ 21 µM) | > 200 | > 200 | > 200 | < 0.05 | 3.13 (≈ 10.5 µM) | < 0.05 | MIC (Proteus vulgaris HX-19): < 0.05 µg/mL; MIC [19]: 0.78 µg/mL (≈ 2.61 µM); MIC [20]: > 200 µg/mL; MIC (Enterobacter cloacae 963): 50 µg/mL (≈ 168 µM); MIC [21]: < 0.05 µg/mL; MIC [22]: 0.39 µg/mL (≈ 1.31 µM); MIC [23]: 6.25 µg/mL (≈ 21 µM); MIC [24]: 0.79 µg/mL (≈ 2.65 µM); MIC [25]: 1.56 µg/mL (≈ 5.23 µM)
2 | [C-]#[N+]C12CC3(/C=C/C(=O)Nc4nc[nH]n4)OC3C1O2 (stereo not drawn) [compound 78] | 50 (≈ 193 µM) | 200 (≈ 772 µM) | 50 (≈ 193 µM) | 100 (≈ 386 µM) | 100 (≈ 386 µM) | 100 (≈ 386 µM) | 200 (≈ 772 µM) | 100 (≈ 386 µM) | 25 (≈ 96.4 µM) | 50 (≈ 193 µM) | 50 (≈ 193 µM) | 50 (≈ 193 µM) | > 200 | 100 (≈ 386 µM) | > 200 | > 200 | > 200 | 50 (≈ 193 µM) | 200 (≈ 772 µM) | 50 (≈ 193 µM) | MIC (Proteus vulgaris HX-19): 50 µg/mL (≈ 193 µM); MIC [19]: 200 µg/mL (≈ 772 µM); MIC [20]: > 200 µg/mL; MIC (Enterobacter cloacae 963): > 200 µg/mL; MIC [21]: 100 µg/mL (≈ 386 µM); MIC [22]: 100 µg/mL (≈ 386 µM); MIC [23]: 200 µg/mL (≈ 772 µM); MIC [24]: > 200 µg/mL; MIC [25]: 200 µg/mL (≈ 772 µM)
3 | [C-]#[N+]C12CC3(/C=C/C(=O)NCCO)OC3C1O2 (stereo not drawn) [compound 68] | 3.13 (≈ 13.2 µM) | 25 (≈ 106 µM) | 6.25 (≈ 26.5 µM) | 200 (≈ 847 µM) | 25 (≈ 106 µM) | 25 (≈ 106 µM) | 200 (≈ 847 µM) | 25 (≈ 106 µM) | 6.25 (≈ 26.5 µM) | 12.5 (≈ 52.9 µM) | 25 (≈ 106 µM) | 6.25 (≈ 26.5 µM) | 100 (≈ 423 µM) | 100 (≈ 423 µM) | > 200 | > 200 | > 200 | 6.25 (≈ 26.5 µM) | 200 (≈ 847 µM) | 12.5 (≈ 52.9 µM) | MIC (Proteus vulgaris HX-19): 6.25 µg/mL (≈ 26.5 µM); MIC [19]: 200 µg/mL (≈ 847 µM); MIC [20]: > 200 µg/mL; MIC (Enterobacter cloacae 963): > 200 µg/mL; MIC [21]: 6.25 µg/mL (≈ 26.5 µM); MIC [22]: 12.5 µg/mL (≈ 52.9 µM); MIC [23]: 200 µg/mL (≈ 847 µM); MIC [24]: 100 µg/mL (≈ 423 µM); MIC [25]: 100 µg/mL (≈ 423 µM)
